Data reported in ChEMBL document CHEMBL4706610, “Hydroxypyridinone-Based Iron Chelators with Broad-Ranging Biological Activities” (J Med Chem, 2020).

Experiments:
[1] = AUC (0 to infinity) in Sprague-Dawley rat plasma at 5 mg/kg, ip measured after 10 to 180 mins by HPLC-MS analysis; format: ADME, organism-based; parameters: route intraperitoneal, time lower 10 min, dose 5 mg/kg, time upper 180 min
[2] = Volume of distribution in Sprague-Dawley rat plasma at 5 mg/kg, ip measured after 10 to 180 mins by HPLC-MS analysis; format: ADME, organism-based; conditions: in vivo, time 10-180 min
[3] = Cmax in Sprague-Dawley rat brain at 5 mg/kg, ip measured up to 30 mins by HPLC-MS analysis; format: ADME, organism-based; parameters: route intraperitoneal, dose 5 mg/kg, time <=30
[4] = Ratio of drug level in Sprague-Dawley rat brain to plasma at 5 mg/kg, ip measured after 10 to 180 mins by HPLC-MS analysis; format: ADME, organism-based; conditions: brain and plasma, time 10-180 min, read-out: BPR
[5] = target: Amyloid-beta precursor protein (Homo sapiens, UniProt P05067); experiment: Inhibition of self-induced amyloid beta (1 to 42) (unknown origin) aggregation incubated for 24 hrs by ThT fluorescence assay
[6] = Half life in Sprague-Dawley rat plasma at 5 mg/kg, ip measured after 10 to 180 mins by HPLC-MS analysis; format: ADME, organism-based; conditions: time 10-180 min

Sequence of Amyloid-beta precursor protein (P05067 whole entry): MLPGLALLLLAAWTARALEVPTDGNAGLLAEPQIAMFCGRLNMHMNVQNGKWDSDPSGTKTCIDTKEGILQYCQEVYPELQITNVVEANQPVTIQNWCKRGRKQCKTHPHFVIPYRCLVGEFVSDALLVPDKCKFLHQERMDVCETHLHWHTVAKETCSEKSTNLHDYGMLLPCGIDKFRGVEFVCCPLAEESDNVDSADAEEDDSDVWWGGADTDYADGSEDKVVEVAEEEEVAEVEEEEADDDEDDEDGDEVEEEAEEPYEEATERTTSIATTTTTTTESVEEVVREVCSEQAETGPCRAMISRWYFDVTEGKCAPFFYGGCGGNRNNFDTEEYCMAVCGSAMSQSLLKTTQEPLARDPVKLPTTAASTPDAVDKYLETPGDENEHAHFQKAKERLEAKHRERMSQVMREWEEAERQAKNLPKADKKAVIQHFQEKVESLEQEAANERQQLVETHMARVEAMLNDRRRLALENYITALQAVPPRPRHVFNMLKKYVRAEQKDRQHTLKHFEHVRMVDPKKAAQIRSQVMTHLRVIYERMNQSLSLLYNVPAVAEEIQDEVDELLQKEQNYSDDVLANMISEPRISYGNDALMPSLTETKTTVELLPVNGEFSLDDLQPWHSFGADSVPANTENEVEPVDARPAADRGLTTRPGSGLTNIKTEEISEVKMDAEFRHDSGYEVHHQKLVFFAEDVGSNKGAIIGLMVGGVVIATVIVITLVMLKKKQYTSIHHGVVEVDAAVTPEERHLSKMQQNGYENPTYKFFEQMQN

AUC(0-inf) [1]: 636 ng·h/mL | Vd [2]: 18.7 L/kg | Cmax [3]: 207 ng/mL | Kp [4]: 0.69 | IC50 [5]: 2850 nM | half-life [6]: 1.6 h
Structure (SMILES): C#CCN(C)CCCn1ccc(=O)c(O)c1C
